# Laboratory results from patent publication US20100029604A1, “ANTIBACTERIAL COMBINATION AND ITS USE” (priority 2007, published 2010).
# Read-outs that look alike come from different tables or passages of the source.
# What was measured:
# Format in all cases: cell-based
# [1] = test system: Klebsiella pneumoniae TEM-1, SHV-5; assay: MIC, characterised β-lactamase producing strain (Example 5, Tables 5-7)
# Protocol: (§1) The MIC experiments were performed in duplicate in 96-well microtiter plates using CAMHB. Serial twofold dilutions of each antibiotic either alone or in combination with constant concentration ratio of a β-lactamase inhibitor (2:1) were prepared in CAMHB. The bacterial suspension with final inoculum 10^5 CFU/mL was transferred to the test medium containing the antibacterial substances. In each well of a 96-well microtiter plate was combined 50 μL of bacterial inoculum, 50 μL of antibiotic dilutions (or media for determination of the MIC of the antibiotic in the absence of test compound). Each plate included 4 wells with no bacterial inoculum (negative control) and 4 wells with no test compound and no antibiotic (positive control). The plates were incubated at 35° C. for 24 h. Purity check and colony counts on each inoculum suspension was performed to ensure that the final inoculum concentration routinely obtained closely approximates 5×10^5 CFU/mL. In addition the assay is routinely monitored by testing standard antibiotics and ensuring that MIC values are within the recommended ranges for the respective strains.
# (§2) This test permits comparisons to be made between bacterial growth in the presence of antibiotic alone and bacterial growth in the presence of both an antibiotic and a novel (test) compound.
# Salmonella spp. DHA-1 = assay: as above
# Protocol: as §1, §2
# Escherichia coli TEM-32 = assay: as above
# Protocol: as §1, §2
# Escherichia coli TEM-34 = assay: as above
# Protocol: as §1, §2
# Escherichia coli OXA-4 = assay: as above
# Protocol: as §1, §2
# [2] = test system: Klebsiella pneumoniae TEM-30; assay: as above
# Protocol: as §1, §2
# [3] = test system: Pseudomonas aeruginosa NPS-1; assay: as above
# Protocol: as §1, §2
# [4] = test system: Aeromonas hydrophila AER-1; assay: as above
# Protocol: as §1, §2
# Escherichia coli TEM-9 = assay: as above
# Protocol: as §1, with “Serial twofold dilutions of each antibiotic either alone or in combination with constant concentration ratio of a β-lactamase inhibitor (2:1) were prepared in CAMHB.” left out
# as §2
# [5] = test system: Klebsiella pneumoniae TEM-1 hyperproduced
# Protocol: as §1, with “Serial twofold dilutions of each antibiotic either alone or in combination with constant concentration ratio of a β-lactamase inhibitor (2:1) were prepared in CAMHB.” left out
# as §2
# [6] = test system: Klebsiella pneumoniae CMY-2; assay: MIC, characterised β-lactamase producing strain (Example 5, Tables 5-7)
# Protocol: as §1, with “Serial twofold dilutions of each antibiotic either alone or in combination with constant concentration ratio of a β-lactamase inhibitor (2:1) were prepared in CAMHB.” left out
# as §2
# Escherichia coli TEM-8 = assay: as above
# Protocol: as §1, with “Serial twofold dilutions of each antibiotic either alone or in combination with constant concentration ratio of a β-lactamase inhibitor (2:1) were prepared in CAMHB.” left out
# as §2
# K. pneumoniae SHV = assay: Synergy MIC, inhibitor at 4 μg/mL (Example 3); conditions: β-lactamase SHV, inhibitor constant 4 μg/mL
# Protocol: (§3) Stock solutions of the test compounds and control antibiotics were prepared in distilled water according to the NCCLS guidelines [Methods for dilution antimicrobial tests for bacteria that grow aerobically. NCCLS document M7-A5; 2000; vol. 19. National Committee for Clinical Laboratory Standards, Villanova, Pa.]. All drug weights were corrected for salt forms and refer to the pure drug substance.
# (§4) All tested strains and Clinical isolates were either purchased from the American Type Culture Collection (ATCC), or from the in-house company culture collection.
# (§5) Stock cultures were prepared from broth cultures grown at 35° C. for 18-22 h without agitation and subsequent addition of 5% DMSO (v/v, final concentration) as cryoprotectant and stored frozen in liquid nitrogen. Mueller-Hinton II broth (MHBII) (BBL Cockeysville, Md.) was used for the testing procedure.
# (§6) The in vitro activities of the antibiotics were determined by the broth microdilution method and agar dilution technique as recommended by CLSI guidelines. The MIC experiments were performed in duplicate in 96-well microtiter plates using MHB. Serial twofold dilutions of each antibiotic either alone or in combination with a constant amount (4 μg/mL) of a β-lactamase inhibitor were prepared in MHBII broth. A sterile pipette tip was used to mix the contents of each well (one tip was used going from the low to the high concentration in the same column). The bacterial suspension with final inoculum 10^5 CFU/mL was transferred to the test medium containing the antibacterial substances by a multipoint inoculator (Dynatech, Chantilly, Va., USA). The plates were then incubated at 35° C. for 24 h.
# (§7) Representative compound of Formula (I) was evaluated against the serine-based Class A β-lactamases including TEM-type, SHV-type extended spectrum β-lactamases (ESBL) and various non-ESBL enzymes of enterobacteriaceae as well as BRO-type enzymes of Moraxella catarrhalis and penicillinases of Staphylococcus aureus.
# E. coli ESBL = assay: Synergy MIC, inhibitor at 4 μg/mL (Example 3); conditions: inhibitor constant 4 μg/mL
# Protocol: as §3, §4, §5, §6, §7
# E. coli SHV-3 = assay: Synergy MIC, inhibitor at 4 μg/mL (Example 3); conditions: β-lactamase SHV-3 (Table 3 r9), inhibitor constant 4 μg/mL
# Protocol: as §3, §4, §5, §6, §7
# E. cloacae SHV-12 = assay: Synergy MIC, inhibitor at 4 μg/mL (Example 3); conditions: β-lactamase SHV-12 (Table 3 r11), inhibitor constant 4 μg/mL
# Protocol: as §3, §4, §5, §6, §7
# [7] = Table 6, LK-157 at constant 4 μg/mL in combination
# [8] = Table 7, combination at constant concentration ratio (2:1)
structure (smiles),measurement,setting,value
CO/N=C(\C(=O)N[C@@H]1C(=O)N2C(C(=O)[O-])=C(C[N+]3(C)CCCC3)CS[C@H]12)c1csc(N)n1 [cefepime],MIC,"[1]; Klebsiella pneumoniae TEM-1, SHV-5, functional group 2b, 2e, LK-157 in combination constant 4 μg/mL",16 µg/mL
same,MIC,"Salmonella spp. DHA-1; Salmonella spp. DHA-1, functional group 1, LK-157 in combination constant 4 μg/mL",1 µg/mL
same,MIC,"Escherichia coli TEM-32; Escherichia coli TEM-32, functional group 2br, LK-157 in combination constant 4 μg/mL",0.125 µg/mL
same,MIC,"Escherichia coli TEM-34; Escherichia coli TEM-34, functional group 2br, LK-157 in combination constant 4 μg/mL",0.063 µg/mL
same,MIC,"Escherichia coli OXA-4; Escherichia coli OXA-4, functional group 2d, LK-157 in combination constant 4 μg/mL",0.5 µg/mL
same,MIC,"[2]; Klebsiella pneumoniae TEM-30, functional group 2br, LK-157 in combination constant 4 μg/mL",0.125 µg/mL
same,MIC,"[3]; Pseudomonas aeruginosa NPS-1, functional group 2a, LK-157 in combination constant 4 μg/mL",8 µg/mL
same,MIC,"[4]; Aeromonas hydrophila AER-1, functional group 2c, LK-157 in combination constant 4 μg/mL",0.5 µg/mL
same,MIC,"Escherichia coli TEM-9; Escherichia coli TEM-9, functional group 2be, LK-157 in combination constant 4 μg/mL",128 µg/mL
CO/N=C(\C(=O)N[C@@H]1C(=O)N2C(C(=O)O)=C(COC(C)=O)CS[C@H]12)c1csc(N)n1 [cefotaxime],MIC,"[1]; Table 6, Klebsiella pneumoniae TEM-1, SHV-5, LK-157 at constant 4 μg/mL in combination",32 µg/mL
same,MIC,"Salmonella spp. DHA-1; Table 6, Salmonella spp. DHA-1, LK-157 at constant 4 μg/mL in combination",32 µg/mL
same,MIC,"Escherichia coli TEM-34; Table 6, Escherichia coli TEM-34, LK-157 at constant 4 μg/mL in combination",0.031 µg/mL
same,MIC,"[2]; Table 6, Klebsiella pneumoniae TEM-30, LK-157 at constant 4 μg/mL in combination",0.031 µg/mL
same,MIC,"[3]; Table 6, Pseudomonas aeruginosa NPS-1, LK-157 at constant 4 μg/mL in combination",16 µg/mL
same,MIC,[5]; [7],0.063 µg/mL
same,MIC,[6]; [7],16 µg/mL
same,MIC,Escherichia coli TEM-8; [7],4 µg/mL
CC(C)(O/N=C(\C(=O)N[C@@H]1C(=O)N2C(C(=O)[O-])=C(C[n+]3ccccc3)CS[C@H]12)c1csc(N)n1)C(=O)O [ceftazidime],MIC,"Escherichia coli TEM-32; Table 7, Escherichia coli TEM-32, combination at constant concentration ratio (2:1)",0.25 µg/mL
same,MIC,"Escherichia coli OXA-4; Table 7, Escherichia coli OXA-4, combination at constant concentration ratio (2:1)",0.5 µg/mL
same,MIC,"[4]; Table 7, Aeromonas hydrophila AER-1, combination at constant concentration ratio (2:1)",0.25 µg/mL
same,MIC,[5]; [8],0.25 µg/mL
same,MIC,K. pneumoniae SHV; first listed (Table 3 r12),> 25.6 µg/mL
same,MIC,K. pneumoniae SHV; second listed (Table 3 r13),12.8 µg/mL
same,MIC,E. coli ESBL; first listed (Table 3 r21),1.6 µg/mL
same,MIC,E. coli ESBL; fourth listed (Table 3 r24),> 25.6 µg/mL
same,MIC,E. coli ESBL; second listed (Table 3 r22),0.4 µg/mL
same,MIC,E. coli ESBL; third listed (Table 3 r23),0.2 µg/mL
same,MIC,E. coli SHV-3,1.6 µg/mL
same,MIC,E. cloacae SHV-12,> 25.6 µg/mL
same,MIC,"Escherichia coli TEM-9; Table 7, Escherichia coli TEM-9, combination at constant concentration ratio (2:1)",≧128 μg/mL
same,MIC,[6]; [8],64 µg/mL
same,MIC,Escherichia coli TEM-8; [8],≧128 μg/mL
